Laboratory results reported in PMC11868595, “Safety, pharmacokinetics and efficacy of HA121-28 in patients with advanced solid tumors and RET fusion-positive non-small-cell lung cancer: a multicenter, open-label, single-arm phase 1/2 trial” (Signal Transduction and Targeted Therapy, 2025).
Where two headings read alike, the source gives them in different places. Marks after values point to notes of the source that are not given here.

Tests used:
EGFR = EGFR (Homo sapiens, UniProt P00533); experiment: Tyrosine kinase inhibition; assay type: biochemical
Chain of EGFR (P00533 25-1210): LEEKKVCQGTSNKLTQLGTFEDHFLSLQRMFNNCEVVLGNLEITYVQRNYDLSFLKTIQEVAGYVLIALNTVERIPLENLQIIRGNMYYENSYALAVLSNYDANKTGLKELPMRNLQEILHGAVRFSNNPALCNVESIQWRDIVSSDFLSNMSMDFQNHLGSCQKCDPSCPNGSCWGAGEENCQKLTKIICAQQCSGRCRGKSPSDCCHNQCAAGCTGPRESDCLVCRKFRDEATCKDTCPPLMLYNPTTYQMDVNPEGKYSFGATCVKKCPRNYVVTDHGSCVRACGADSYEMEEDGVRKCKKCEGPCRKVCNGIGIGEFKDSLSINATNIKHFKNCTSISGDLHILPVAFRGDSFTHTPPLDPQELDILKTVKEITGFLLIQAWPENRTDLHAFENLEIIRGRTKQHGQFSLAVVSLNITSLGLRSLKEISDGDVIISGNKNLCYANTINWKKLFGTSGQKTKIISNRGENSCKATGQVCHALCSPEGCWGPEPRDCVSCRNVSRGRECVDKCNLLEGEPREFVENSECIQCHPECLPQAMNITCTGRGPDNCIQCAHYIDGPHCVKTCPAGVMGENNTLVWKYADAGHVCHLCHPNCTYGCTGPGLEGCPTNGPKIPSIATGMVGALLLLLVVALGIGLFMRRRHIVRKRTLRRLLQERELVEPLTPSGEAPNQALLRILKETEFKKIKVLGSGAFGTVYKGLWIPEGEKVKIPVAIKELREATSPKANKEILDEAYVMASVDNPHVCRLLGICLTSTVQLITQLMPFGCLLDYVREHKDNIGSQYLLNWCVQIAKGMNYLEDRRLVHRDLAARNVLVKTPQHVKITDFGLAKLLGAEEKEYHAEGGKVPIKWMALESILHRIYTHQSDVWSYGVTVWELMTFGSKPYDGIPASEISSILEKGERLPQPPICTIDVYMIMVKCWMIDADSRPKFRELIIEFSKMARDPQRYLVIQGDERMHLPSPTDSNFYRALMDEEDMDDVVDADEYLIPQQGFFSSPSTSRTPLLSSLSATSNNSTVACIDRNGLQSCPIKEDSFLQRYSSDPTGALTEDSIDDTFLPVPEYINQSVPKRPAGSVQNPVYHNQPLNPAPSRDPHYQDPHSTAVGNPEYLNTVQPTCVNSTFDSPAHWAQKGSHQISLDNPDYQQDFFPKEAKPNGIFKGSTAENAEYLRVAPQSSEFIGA

FGFR1-3 = assay type: biochemical
HER-2 = HER-2 (Homo sapiens, UniProt P04626); experiment: Tyrosine kinase inhibition; assay type: biochemical; settings: read-out: IC50, HER2
A498 cells = experiment: Tumor cell proliferation in vitro; assay type: cell-based
HCT116 cells = experiment: Tumor cell proliferation in vitro; assay type: cell-based
matrigel angiogenesis = assay type: in vivo, mouse; settings: induced by VEGF and FGF
[1] = tested on: human esophageal cancer ECA-109 tumors; experiment: ECA-109 tumors in nude mice; assay type: in vivo
[2] = tested on: human gastric cancer SGC-7901 tumors; experiment: SGC-7901 tumors in nude mice; assay type: in vivo
Excerpt: (§1) was higher than that of vandetanib .
as §1
Table S16. Efficacy of HA121-28 on human gastric cancer SGC-7901 tumors

Plasma protein binding [3] = assay type: in vitro ADME; settings: rats
Plasma protein binding [4] = assay type: in vitro ADME; settings: humans
Single-dose toxicity = assay type: in vivo, Beagle dogs; settings: single oral dose 500 and 1000 mg/kg
Procedure: mg/kg. The maximum tolerated dose (MTD) was 500 mg/kg. Gastrointestinal, hepatic, and immune system toxicity may have contributed to the rat deaths.
2.2. Dose expansion phase
[…] To investigate the efficacy of HA121- 28 tablets in patients with advanced solid tumors.
This study is a single- arm, open- label, dose-escalation, and dose-expansion phase 1 clinical studywith single and multiple dosing.

CHL = CHL test; assay type: cell-based
FMS = FMS (Homo sapiens, UniProt P07333); experiment: Tyrosine kinase inhibition; assay type: biochemical
Chain of FMS (P07333 20-972): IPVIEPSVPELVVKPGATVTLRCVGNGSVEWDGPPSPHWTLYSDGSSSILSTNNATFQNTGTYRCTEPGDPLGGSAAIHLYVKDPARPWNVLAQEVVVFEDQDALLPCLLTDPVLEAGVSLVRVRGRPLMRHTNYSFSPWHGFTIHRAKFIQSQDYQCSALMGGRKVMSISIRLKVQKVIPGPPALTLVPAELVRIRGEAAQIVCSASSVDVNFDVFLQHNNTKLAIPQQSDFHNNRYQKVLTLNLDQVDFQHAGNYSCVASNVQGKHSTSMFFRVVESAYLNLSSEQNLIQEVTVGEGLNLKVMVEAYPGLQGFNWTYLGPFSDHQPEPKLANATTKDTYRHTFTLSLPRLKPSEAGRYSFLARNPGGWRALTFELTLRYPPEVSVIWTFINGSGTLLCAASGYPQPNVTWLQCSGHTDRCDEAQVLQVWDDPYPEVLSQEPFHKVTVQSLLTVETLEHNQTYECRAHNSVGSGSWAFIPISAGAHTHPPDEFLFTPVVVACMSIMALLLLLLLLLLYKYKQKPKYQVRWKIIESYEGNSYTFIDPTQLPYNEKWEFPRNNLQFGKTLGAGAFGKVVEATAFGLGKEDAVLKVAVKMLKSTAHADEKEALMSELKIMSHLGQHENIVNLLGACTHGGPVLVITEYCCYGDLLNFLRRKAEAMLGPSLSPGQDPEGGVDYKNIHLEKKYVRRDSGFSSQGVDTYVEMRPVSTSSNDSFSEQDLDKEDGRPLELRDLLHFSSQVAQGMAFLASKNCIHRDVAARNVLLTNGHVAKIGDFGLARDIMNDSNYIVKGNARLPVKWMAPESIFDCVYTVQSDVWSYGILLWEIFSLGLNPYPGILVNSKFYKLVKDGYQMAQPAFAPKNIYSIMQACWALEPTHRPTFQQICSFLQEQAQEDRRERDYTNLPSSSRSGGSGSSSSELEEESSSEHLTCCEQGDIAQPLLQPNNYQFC

FLT3 = FLT3 (Homo sapiens, UniProt P36888); experiment: Tyrosine kinase inhibition; assay type: biochemical
Chain of FLT3 (P36888 27-993): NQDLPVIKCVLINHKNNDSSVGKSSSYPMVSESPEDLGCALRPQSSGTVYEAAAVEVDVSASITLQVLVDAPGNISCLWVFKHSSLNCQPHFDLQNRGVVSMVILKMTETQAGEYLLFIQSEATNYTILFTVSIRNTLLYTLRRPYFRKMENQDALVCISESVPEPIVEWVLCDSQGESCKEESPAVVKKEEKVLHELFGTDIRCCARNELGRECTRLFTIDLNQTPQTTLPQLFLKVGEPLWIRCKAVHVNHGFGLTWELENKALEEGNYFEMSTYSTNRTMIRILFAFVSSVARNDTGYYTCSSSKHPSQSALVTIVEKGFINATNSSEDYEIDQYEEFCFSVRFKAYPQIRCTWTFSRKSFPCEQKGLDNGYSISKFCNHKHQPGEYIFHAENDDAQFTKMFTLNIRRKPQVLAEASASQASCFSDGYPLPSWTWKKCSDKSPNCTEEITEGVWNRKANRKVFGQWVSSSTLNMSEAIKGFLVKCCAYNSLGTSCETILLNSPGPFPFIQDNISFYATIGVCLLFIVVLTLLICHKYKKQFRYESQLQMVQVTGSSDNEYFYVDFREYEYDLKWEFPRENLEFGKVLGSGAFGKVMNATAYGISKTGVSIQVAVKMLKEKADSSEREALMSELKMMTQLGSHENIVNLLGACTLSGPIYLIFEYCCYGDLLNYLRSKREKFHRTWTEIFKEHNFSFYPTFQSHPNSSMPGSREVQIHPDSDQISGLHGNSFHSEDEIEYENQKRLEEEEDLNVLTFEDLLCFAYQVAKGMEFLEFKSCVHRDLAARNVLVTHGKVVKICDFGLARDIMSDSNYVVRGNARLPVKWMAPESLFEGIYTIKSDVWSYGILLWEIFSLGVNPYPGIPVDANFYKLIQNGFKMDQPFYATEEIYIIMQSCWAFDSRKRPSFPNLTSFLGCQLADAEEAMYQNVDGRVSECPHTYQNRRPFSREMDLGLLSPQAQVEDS

AXL = AXL (Homo sapiens, UniProt P30530); experiment: Tyrosine kinase inhibition; assay type: biochemical
Chain of AXL (P30530 26-894): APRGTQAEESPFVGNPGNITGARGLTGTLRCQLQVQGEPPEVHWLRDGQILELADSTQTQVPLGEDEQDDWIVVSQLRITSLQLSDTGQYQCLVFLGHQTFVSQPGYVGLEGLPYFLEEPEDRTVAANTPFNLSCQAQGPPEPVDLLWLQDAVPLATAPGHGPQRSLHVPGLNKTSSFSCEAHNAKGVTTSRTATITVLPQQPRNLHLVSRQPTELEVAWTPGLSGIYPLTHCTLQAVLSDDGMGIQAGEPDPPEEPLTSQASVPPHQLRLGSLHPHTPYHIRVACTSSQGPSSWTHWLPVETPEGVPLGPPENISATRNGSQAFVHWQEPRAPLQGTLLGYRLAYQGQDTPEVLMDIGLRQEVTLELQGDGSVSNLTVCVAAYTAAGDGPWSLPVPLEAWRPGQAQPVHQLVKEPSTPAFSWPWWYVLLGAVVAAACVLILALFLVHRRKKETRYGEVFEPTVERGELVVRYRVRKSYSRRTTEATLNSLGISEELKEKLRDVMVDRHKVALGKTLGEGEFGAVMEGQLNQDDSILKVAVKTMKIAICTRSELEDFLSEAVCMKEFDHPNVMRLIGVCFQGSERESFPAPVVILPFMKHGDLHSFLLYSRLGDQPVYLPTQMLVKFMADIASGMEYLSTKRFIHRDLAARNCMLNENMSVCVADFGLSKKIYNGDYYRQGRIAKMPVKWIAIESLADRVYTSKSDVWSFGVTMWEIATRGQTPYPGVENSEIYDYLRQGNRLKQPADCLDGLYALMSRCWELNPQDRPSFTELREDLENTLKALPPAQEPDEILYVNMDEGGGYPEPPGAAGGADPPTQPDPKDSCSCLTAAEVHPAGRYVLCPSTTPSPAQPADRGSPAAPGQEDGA

Compound `COc1cc2c(Nc3ccc(Br)cc3F)ncnc2cc1OCCCCN(C)C.Cl.Cl` [HA121-28, N-(4-bromo-2-fluorophenyl)-7-(4-(dimethylamino)butoxy)-6-methoxy quinazolin-4-amine dihydrochloride] has an IC50 (EGFR) of 0.0466 µM, an IC50 (FGFR1-3; FGFR1, read-out: IC50, FGFR1) of 0.0323 µM and an IC50 (FGFR1-3; FGFR2, read-out: IC50, FGFR2) of 0.0204 µM. The IC50 (FGFR1-3; FGFR3, read-out: IC50, FGFR3) was 0.0231 µM, the IC50 (HER-2) was 0.042 µM and the IC50 (A498 cells) was 0.859 ± 0.0179 µM. The IC50 (HCT116 cells) was 1.42 ± 0.236 µM, the mouse matrigel angiogenesis (matrigel angiogenesis) was “able to inhibit” and the “RTV ±SD” value ([1]; 12.5 mg/kg) was 7.0±2.8. The T/C ([1]; 12.5 mg/kg) was 68.6%, the “Terminal Tumor Volume” value ([1]; 12.5 mg/kg) was 1,684.6±1,034.3 mm^3 and the “RTV ±SD” value ([1]; 25 mg/kg) was 3.1±1.6. The T/C ([1]; 25 mg/kg) was 29.8%, the “Terminal Tumor Volume” value ([1]; 25 mg/kg) was 693.5±538.6*^▲ mm^3 and the “RTV ±SD” value ([1]; 50 mg/kg) was 2.2±0.4. The T/C ([1]; 50 mg/kg) was 21.6%, the “Terminal Tumor Volume” value ([1]; 50 mg/kg) was 491.8±77.4** mm^3 and the “RTV ±SD” value ([2]; 25 mg/kg) was 7.2±1.0. For the same compound, the T/C ([2]; 25 mg/kg) was 45.3%, the “Terminal Tumor Volume” value ([2]; 25 mg/kg) was 1424.3±410.0** mm^3 and the “RTV ±SD” value ([2]; 50 mg/kg) was 2.0±1.1. The T/C ([2]; 50 mg/kg) was 12.8%, the “Terminal Tumor Volume” value ([2]; 50 mg/kg) was 478.5±307.8** mm^3 and the “RTV ±SD” value ([2]; 75 mg/kg) was 1.2±0.3. For the same compound, the T/C ([2]; 75 mg/kg) was 7.6%, the “Terminal Tumor Volume” value ([2]; 75 mg/kg) was 288.9±162.6** mm^3 and the “plasma protein binding rate” value (Plasma protein binding [3]) was 92.4±1.28%. For the same compound, the “plasma protein binding rate” value (Plasma protein binding [4]) was 90.1±1.05%, the MTD (Single-dose toxicity) was 1000 mg/kg and the genetic toxicity (CHL) was “negative”. The IC50 (FMS) was 2.91 µM, the IC50 (FLT3) was 0.556 µM and the IC50 (AXL) was 0.589 µM.
